# Results published in patent US10472635B2, “Methods of treating brain edema” (priority 2015, dated 2019).
# Read-outs that look alike come from different tables or passages of the source.
# How the values were obtained:
# [1] = molecular target: CLC-2 (Homo sapiens, UniProt P51788); details: cited from earlier work
# [2] = test system: cortical neurons in brain slices; experiment: Neuronal swelling imaging assay in brain slices (cross sectional area of CoroNa-stained soma, two-photon); format: cell-based, rat; details: for magnitude of neuronal swelling: veratridine-induced, blockers present, without vs with pre-applied picrotoxin (100 μM)
# [3] = test system: rat hippocampal slices; experiment: LDH release cell death assay in hippocampal slices; format: cell-based; details: for effect on veratridine-induced cell death (LDH release): 50 μM veratridine
# [4] = test system: neuronal [Na^+]i in brain slices; experiment: Neuronal [Na+]i by CoroNa Green fluorescence / two-photon FLIM; format: cell-based, rat
# [5] = molecular target: T1, NKCC1 (Homo sapiens, UniProt P55011); details: cited from earlier work
# T1 sequence (P55011 1-1212): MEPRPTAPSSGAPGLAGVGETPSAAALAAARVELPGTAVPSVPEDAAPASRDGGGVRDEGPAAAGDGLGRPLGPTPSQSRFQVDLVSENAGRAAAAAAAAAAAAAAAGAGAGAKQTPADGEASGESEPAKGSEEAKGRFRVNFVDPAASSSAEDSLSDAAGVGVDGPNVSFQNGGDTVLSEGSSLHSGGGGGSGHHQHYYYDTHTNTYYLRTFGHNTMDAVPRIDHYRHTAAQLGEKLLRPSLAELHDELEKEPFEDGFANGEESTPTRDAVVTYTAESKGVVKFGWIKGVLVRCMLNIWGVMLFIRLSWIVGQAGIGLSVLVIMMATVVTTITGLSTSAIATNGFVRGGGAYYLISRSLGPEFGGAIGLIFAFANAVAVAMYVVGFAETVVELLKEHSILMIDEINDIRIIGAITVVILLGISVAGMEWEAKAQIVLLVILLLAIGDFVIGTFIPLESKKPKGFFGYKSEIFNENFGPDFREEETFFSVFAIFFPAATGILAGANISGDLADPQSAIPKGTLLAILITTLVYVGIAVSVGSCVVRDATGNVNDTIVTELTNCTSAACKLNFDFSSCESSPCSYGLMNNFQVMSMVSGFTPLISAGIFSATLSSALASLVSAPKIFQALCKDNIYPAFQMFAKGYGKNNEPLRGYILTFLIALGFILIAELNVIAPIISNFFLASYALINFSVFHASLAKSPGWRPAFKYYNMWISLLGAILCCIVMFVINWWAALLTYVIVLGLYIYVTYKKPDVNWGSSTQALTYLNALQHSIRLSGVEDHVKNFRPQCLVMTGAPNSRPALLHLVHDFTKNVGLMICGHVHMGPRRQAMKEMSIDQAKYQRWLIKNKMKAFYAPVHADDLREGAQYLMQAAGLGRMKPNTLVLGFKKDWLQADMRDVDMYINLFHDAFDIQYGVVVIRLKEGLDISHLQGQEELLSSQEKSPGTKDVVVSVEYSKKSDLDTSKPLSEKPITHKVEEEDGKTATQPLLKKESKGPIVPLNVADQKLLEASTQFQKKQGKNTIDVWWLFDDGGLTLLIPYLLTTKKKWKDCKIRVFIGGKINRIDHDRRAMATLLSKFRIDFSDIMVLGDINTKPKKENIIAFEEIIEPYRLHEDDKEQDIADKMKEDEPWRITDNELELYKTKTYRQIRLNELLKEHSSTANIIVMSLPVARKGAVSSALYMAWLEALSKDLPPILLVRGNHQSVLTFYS
# [6] = molecular target: T2, KCC2 (Homo sapiens, UniProt Q9H2X9); details: cited from earlier work
# T2 sequence (Q9H2X9 1-1139): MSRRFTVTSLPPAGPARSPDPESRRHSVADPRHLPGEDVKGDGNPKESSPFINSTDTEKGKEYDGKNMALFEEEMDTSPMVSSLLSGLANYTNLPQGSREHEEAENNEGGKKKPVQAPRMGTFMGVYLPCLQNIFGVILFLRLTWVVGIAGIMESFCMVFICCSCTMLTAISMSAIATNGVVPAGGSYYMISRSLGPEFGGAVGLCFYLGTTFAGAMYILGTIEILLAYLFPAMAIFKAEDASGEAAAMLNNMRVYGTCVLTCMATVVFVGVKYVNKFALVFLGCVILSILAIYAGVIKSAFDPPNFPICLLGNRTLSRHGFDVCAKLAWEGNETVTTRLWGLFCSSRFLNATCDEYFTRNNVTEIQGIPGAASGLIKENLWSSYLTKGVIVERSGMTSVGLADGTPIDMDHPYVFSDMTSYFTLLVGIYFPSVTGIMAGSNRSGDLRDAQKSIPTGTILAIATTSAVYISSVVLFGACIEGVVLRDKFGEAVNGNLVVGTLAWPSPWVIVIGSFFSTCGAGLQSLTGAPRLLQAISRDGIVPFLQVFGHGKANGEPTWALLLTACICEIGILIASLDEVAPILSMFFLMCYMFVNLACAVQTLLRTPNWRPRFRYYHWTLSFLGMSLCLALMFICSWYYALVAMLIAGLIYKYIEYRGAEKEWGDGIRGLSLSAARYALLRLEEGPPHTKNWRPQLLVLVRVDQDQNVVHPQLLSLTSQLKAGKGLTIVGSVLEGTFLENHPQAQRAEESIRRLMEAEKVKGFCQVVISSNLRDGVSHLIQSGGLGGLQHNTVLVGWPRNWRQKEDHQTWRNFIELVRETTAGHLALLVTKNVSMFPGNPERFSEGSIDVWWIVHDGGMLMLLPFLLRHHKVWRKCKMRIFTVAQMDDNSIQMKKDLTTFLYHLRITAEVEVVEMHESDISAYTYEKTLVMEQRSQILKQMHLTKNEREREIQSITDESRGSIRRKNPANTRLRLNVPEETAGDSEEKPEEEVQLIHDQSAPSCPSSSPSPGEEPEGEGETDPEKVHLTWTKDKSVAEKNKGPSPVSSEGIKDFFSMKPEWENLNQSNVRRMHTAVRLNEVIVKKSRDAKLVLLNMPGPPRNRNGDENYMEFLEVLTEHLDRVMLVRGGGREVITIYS
# [7] = test system: Maxi-Anion Channel; details: cited from earlier work
# [8] = test system: CaCC; details: cited from earlier work
# [9] = test system: Pannexins, Connexins; details: cited from earlier work
# [10] = test system: VRAC; details: cited from earlier work
# [11] = test system: voltage-dependent Cl^− current in layer 4 cortical neurons; experiment: Whole-cell voltage clamp of depolarization-activated Cl- current; format: cell-based, rat; details: depolarization to −20 mV or greater; cocktail of channel blockers; GlyH-101 by dialysis
# Procedure: Electrophysiology: Whole-cell recordings were performed in the presence of antagonists of GABAA (10 μM picrotoxin), AMPA/kainite (10 μM 6-cyano-7-nitoquinoxaline-2,3-dione—CNQX), and NMDA (2R-amino-5-phosphonovaleric acid—APV) receptors. 60 μM cadmium, 50 μM nickel and 100 μM 4AP (4-aminopyridine) were used to block voltage-gated calcium channels and A-type potassium channels. Whole-cell voltage-clamp recordings from cortical neurons were carried out at room temperature while the recording chamber was perfused with ACSF at 1-1.5 ml min-1. Recordings were made using a MultiClamp 700B amplifier controlled by Clampex 10.2 via a Digidata 1440A data acquisition system with 3-5M ? glass electrodes. The pipette solution containing (in m ? ): 108 CsCl, 8 TEA-Cl, 8 NaGluc, 1 CsEGTA, 4 K-ATP, 0.3 Na-GTP, 10 Hepes, 2MgCl2 (pH 7.2 with CsOH, 286 mosmol 1-1). Normal ACSF contained (in mM): 126 NaCl, 26 NaHCO3, 10 glucose, 2 MgCl2, 1.25 NaH2PO4, 2.5 KCl, 2.0 CaCl2 (pH 7.25, 310 mosmol 1-1). NaCl was replaced with 126 mM Na-isethionate in the low-chloride ACSF. Recordings where the series resistance varied more than 10% were rejected. Data were analyzed with Clampfit 10.0.
# The opening of Na^+ permeable channels causes both [Na^+]i accumulation and neuronal depolarization. […] However progressive accumulation of extracellular K^+ could lead to further depolarization of the membrane. […]
# [12] = pressure ejection, Cd2+, CNQX, picrotoxin present, d-APV with veratridine, TTX with NMDA
# [13] = 22-24 °C, antagonist bath applied and in puffing pipette, DIDS 250 μM, NPPB 200 μM, TTX 1 μM
# Chain of CLC-2 (P51788 whole entry): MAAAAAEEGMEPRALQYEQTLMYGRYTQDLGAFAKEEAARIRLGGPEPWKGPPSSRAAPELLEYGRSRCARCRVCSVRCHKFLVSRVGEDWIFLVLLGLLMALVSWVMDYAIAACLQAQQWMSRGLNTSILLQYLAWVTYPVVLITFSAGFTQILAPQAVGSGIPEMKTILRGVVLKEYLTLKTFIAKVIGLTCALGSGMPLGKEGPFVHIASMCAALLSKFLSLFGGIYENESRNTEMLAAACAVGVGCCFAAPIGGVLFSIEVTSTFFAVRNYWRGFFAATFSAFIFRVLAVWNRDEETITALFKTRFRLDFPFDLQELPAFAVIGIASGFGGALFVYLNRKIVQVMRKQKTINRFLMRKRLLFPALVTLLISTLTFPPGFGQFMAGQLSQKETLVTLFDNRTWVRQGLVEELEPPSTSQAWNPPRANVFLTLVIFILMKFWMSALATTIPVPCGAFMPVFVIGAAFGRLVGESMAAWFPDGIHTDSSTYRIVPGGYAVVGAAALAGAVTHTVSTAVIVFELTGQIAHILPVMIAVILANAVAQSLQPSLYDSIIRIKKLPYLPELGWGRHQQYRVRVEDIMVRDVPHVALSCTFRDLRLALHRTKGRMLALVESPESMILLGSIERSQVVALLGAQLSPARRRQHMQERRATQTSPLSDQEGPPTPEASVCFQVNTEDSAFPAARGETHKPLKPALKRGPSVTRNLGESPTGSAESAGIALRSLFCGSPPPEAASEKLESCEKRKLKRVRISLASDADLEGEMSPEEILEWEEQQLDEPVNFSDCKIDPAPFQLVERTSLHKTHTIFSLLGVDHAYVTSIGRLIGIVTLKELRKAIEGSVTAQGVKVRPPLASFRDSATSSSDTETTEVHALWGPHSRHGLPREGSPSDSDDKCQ
compound,measurement,setting,value
[Zn] [Zinc],concentration (antagonist sensitivity of channel/transporter),[1],100 µM
"CN[C@H](CC(=O)O)C(=O)O [NMDA, N-Methyl-D-aspartic acid]",neuronal cross sectional area after NMDAR activation,"[2]; extracellular Ca2+ free solution (0 mM Ca2+, 2 mM EGTA), TTX, Cd2+, CNQX, picrotoxin present",161.60±10.55 % of baseline
same,neuronal cross sectional area after NMDAR activation,"[2]; extracellular Na+ replaced with NMDG (152 mM to 26 mM), normal Ca2+",86.7 % of baseline
same,change in neuronal cell volume on application,[2]; [12],increase in neuronal cell volume
same,LDH release (cell death) on application,"[3]; 15 min application, LDH after 90 min, veratridine 50 μM, NMDA 100 μM in 0 mM Ca2+, 2 mM EGTA, CNQX, picrotoxin, Cd2+ present",rapid and significant increase
same,change in neuronal [Na+]i on application,[4]; [12],significant increase
"CCCCNc1cc(C(=O)O)cc(S(N)(=O)=O)c1Oc1ccccc1 [Bumetanide, bumetanide]",Ki,[5],~0.1 µM
same,Ki,[6],25 to 50 µM
[Gd+3] [Gd^3+],concentration (antagonist sensitivity of channel/transporter),[7],30 to 50 µM
"N[C@H](CCCP(=O)(O)O)C(=O)O [d-APV, 2R-amino-5-phosphonovaleric acid]",effect on NMDA-induced neuronal swelling,"[2]; DIDS 250 μM, 500 μM, 1 mM, d-APV 100 μM",blocked
same,effect on NMDA-induced [Na+]i increase,"[4]; CoroNa signal, d-APV 100 μM",blocked
"O=C(O)c1cccnc1Nc1cccc(C(F)(F)F)c1 [NFA, niflumic acid]",concentration (antagonist sensitivity of channel/transporter),[8],50 to 100 µM
"CC1(C)[C@@H](OC(=O)CCC(=O)O)CC[C@]2(C)[C@H]3C(=O)C=C4[C@@H]5C[C@@](C)(C(=O)O)CC[C@]5(C)CC[C@@]4(C)[C@]3(C)CC[C@@H]12 [CBX, carbenoxelone]",concentration (antagonist sensitivity of channel/transporter),[9],100 µM
"NC1=N[C@H](O)[C@H]2[C@H]3O[C@]4(O)O[C@@H]([C@@H](O)[C@@]2(N1)[C@@H]4O)[C@]3(O)CO [TTX, Tetrodotoxin]",effect on veratridine-induced neuronal swelling,[2],blocked
same,effect on veratridine-induced [Na+]i increase,[4],blocked
picrotoxin,magnitude of neuronal swelling,[2],146.9%
O=C(O)c1cc([N+](=O)[O-])ccc1NCCCc1ccccc1 [NPPB],effect on veratridine-induced neuronal swelling,[2]; [13],no protection
same,concentration (antagonist sensitivity of channel/transporter),[7],100 µM
same,effect on veratridine-induced cell death (LDH release),[3],no effect
same,"effect on NMDA-induced cell death (LDH release), Ca2+-independent",[3]; NMDA in Ca2+ free extracellular solution,blocked by DIDS but not NPPB
same,concentration (antagonist sensitivity of channel/transporter),[10],40 to 100 µM
same,concentration (antagonist sensitivity of channel/transporter),[8],100 µM
COc1ccc(C(=O)O[C@H]2CC[C@@]3(C)[C@@H]4CC[C@H]5[C@]6(O)C[C@H](O)[C@@]7(O)[C@@H](CN8C[C@@H](C)CC[C@H]8[C@@]7(C)O)[C@]6(O)C[C@@]53O[C@]24O)cc1OC [veratridine],magnitude of neuronal swelling,[2],161.7%
same,"[Na+]i (calibrated value, CoroNa FLIM)",[4]; throughout veratridine application,approximately 94.46±2.14 mM
O=C(CNc1ccc2ccccc2c1)N/N=C/c1cc(Br)c(O)c(Br)c1O [GlyH-101],effect on veratridine-induced neuronal swelling,[2]; [13],profoundly inhibited
same,effect on veratridine-induced cell death (LDH release),[3],profoundly inhibited
same,effect on non-inactivating Cl- current elicited by depolarization,[11],inhibit
